Article PMC5712521, “Dendrogenin A drives LXR to trigger lethal autophagy in cancers” (Nature Communications, 2017)

Assays:
B16F10 cells [1] = experiment: RT-qPCR of LXR-responsive genes; type: cell-based, mouse; details: 8 h, 2.5 µM DDA, 10 µM 22(R)HC, 1 µM GW, 100 nM TO, vs vehicle
Procedure: (§1) Total RNA was extracted from tumor cells or MEFs using an RNA Extraction kit (Qiagen) or Trizol (Invitrogen), respectively, and was quantified with NanoDrop. Complementary DNA (cDNA) synthesis was performed with 1 μg RNA iScript Reverse Transcriptase (Bio-Rad). 25 ng cDNA was amplified using SyBR Supermix (Bio-Rad). RNA expression of the different genes of interest (Supplementary Tables 1, 2) were determined using the ΔΔCT method, where the difference in the threshold cycle (ΔCT) values of the target gene and the housekeeping gene for each sample was normalized to the ΔCT value of the untreated sample.
(§2) Supplementary Fig. 4. a R egulat ion of LXR-responsive genes b y D DA and other k nown LXR
(§3) ligands in B16F10 and SKMEL- 28 cells transfected with s iRN A targeting LXRβ ( siLXRβ) or
(§4) with contro l siRN A scram ble (siSC). Cells were treated for 8 h with either solvent vehicle, 2.5
(§5) µM DD A, 10 µM 22(R) hydrox ycholesterol (22(R)HC), 1 µM GW 3965 (GW ) or 100 nM
(§6) T O901317 (T O). […]

SKMEL-28 cells [2] = experiment: DDA-induced cytotoxicity (cell death); type: cell-based; details: for cell death: SKMEL-28, 5 µM 22(R)HC, 0.5 µM TO, 1 µM GW
Procedure: (§7) Melanoma cells were seeded into 6-well plates at 60,000 cells per well and AML cells at 250,000 cells/ml. The cells were then treated with control solvent vehicle (1/1000 ethanol in water) or DDA. Where indicated, treated cells were incubated in the presence or absence of each inhibitor for time shown. Cell death was determined by the trypan blue exclusion assay. Cells were scraped and resuspended in trypan blue solution (0.25% (w/v) in PBS) and counted in a Malassez cell under light microscopy. Cell viability was then quantified by counting viable (trypan blue-negative) and dead cells (trypan blue-positive).
(§8) Supplementary Fig. 1. a DDA inhibited m elanom a colony form ation. Melanom a cells were […]
(§9) a 0.5% solution of crystal violet in water and analyzed by microscopy. Images are representative of 5 independent experiments. b Evaluation of DDA-induced cytotoxicity (cytotox) and clonogenicity (clono) inhibition in a subset of human (H) and mouse (M) m elanom a cell lines. T he BRaf status in m elanom a cells lines is shown. […]

B16F10 cells [3] = experiment: DDA-induced cytotoxicity (cell death); type: cell-based; details: for cell death: B16F10, 5 µM 22(R)HC, 0.5 µM TO, 1 µM GW
Procedure: as §7, §8, §9

SKMEL-28 cells [4] = experiment: RT-qPCR of LXR-responsive genes; type: cell-based, human; details: 8 h, 2.5 µM DDA, 10 µM 22(R)HC, 1 µM GW, 100 nM TO, vs vehicle
Procedure: as §1, §2, §3, §4, §5, §6

SKMEL-28 cells [5] = experiment: Immunoblot densitometry (LC3-II); type: cell-based, human; details: 2.5 µM DDA; for LC3-II protein, densitometry relative to control: SKMEL-28, 24 h, 10 µM 22(R)HC, 100 nM TO; for LC3-II protein, densitometry relative to untreated / LC3-II protein, densitometry: 24 h
Procedure: Immunoblotting was carried out as described previously. Proteins were separated on SDS-PAGE gels, electro-transferred onto polyvinylidene difluoride membranes and incubated overnight at 4 °C with the following antibodies: anti-Atg3, anti-Atg5 (D1G9), anti-Atg7 (D12B11), anti-Beclin (D40C5), anti-caspase-3 (Cell Signaling), anti-Bcl-2 (Millipore), anti-Bax (Millipore), anti-LC3 (Sigma-Aldrich), anti-LXRα (SantaCruz), anti-LXRβ (SantaCruz), anti-Nur77 (Active motif), anti-NOR1 (R&D systems), anti-PARP (Cell Signaling), anti-Vps34 (Cell Signaling), or anti-Actin (Millipore). For visualization, an ECL plus kit (Amersham Biosciences) was used, and chemiluminescence was measured by autoradiography (Supplementary Fig. 9). Specific bands were quantified with ImageQuant software.

## CC(C)CC[C@@H](O)[C@@H](C)[C@H]1CC[C@H]2[C@@H]3CC=C4C[C@@H](O)CC[C@]4(C)[C@H]3CC[C@]12C [22(R)HC, 22(R)-hydroxycholesterol]
B16F10 cells [1]; B16F10, siCT
  ABCA1 mRNA: 12.5±2.5 fold
  ABCG1 mRNA: 0.7±0.1 fold
  ABCG5 mRNA: 4.2±0.2 fold
  ABCG8 mRNA: 1.6±0.2 fold
  LC3A mRNA: 1.3±0.1 fold
  LC3B mRNA: 1.1±0.2 fold
  LDLR mRNA: 0.1±0.1 fold
  NOR1 mRNA: 2.2±0.3 fold
  Nur77 mRNA: 1.4±0.1 fold
  SCD1 mRNA: 1.1±0.2 fold
  SREBP1 mRNA: 2.2±0.2 fold
  SULT2b1b mRNA: 1.5±0.3 fold
B16F10 cells [1]; B16F10, siLXRβ
  ABCA1 mRNA: 4.2 ±0.9 fold
  ABCG1 mRNA: 1.1±0.1 fold
  ABCG5 mRNA: 2.0±0.5 fold
  ABCG8 mRNA: 1.0±0.1 fold
  LC3A mRNA: 1.0±0.3 fold
  LC3B mRNA: 1.0±0.1 fold
  LDLR mRNA: 1.1±0.1 fold
  NOR1 mRNA: 0.9±0.2 fold
  Nur77 mRNA: 0.8±0.2 fold
  SCD1 mRNA: 1.2±0.3 fold
  SREBP1 mRNA: 1.2±0.1 fold
  SULT2b1b mRNA: 1.1±0.2 fold
SKMEL-28 cells [2]
  cell death: no impact on cell death
B16F10 cells [3]
  cell death: no impact on cell death
SKMEL-28 cells [4]; SKMEL-28, siCT
  ABCA1 mRNA: 6.5±0.1 fold
  ABCG1 mRNA: 2.1±0.2 fold
  ABCG5 mRNA: 4.5±0.1 fold
  ABCG8 mRNA: 0.4±0.1 fold
  LC3A mRNA: 1.0±0.2 fold
  LC3B mRNA: 0.9±0.2 fold
  LDLR mRNA: 0.4±0.1 fold
  NOR1 mRNA: 1.8±0.1 fold
  Nur77 mRNA: 1.6±0.2 fold
  SCD1 mRNA: 1.0±0.2 fold
  SREBP1 mRNA: 2.3±0.2 fold
  SULT2B1b mRNA: 1.9±0.1 fold
SKMEL-28 cells [4]; SKMEL-28, siLXRβ
  ABCA1 mRNA: 1.5±0.1 fold
  ABCG1 mRNA: 0.2±0.1 fold
  ABCG5 mRNA: 1.7±0.3 fold
  ABCG8 mRNA: 0.7±0.2 fold
  LC3A mRNA: 1.0±0.2 fold
  LC3B mRNA: 1.0±0.1 fold
  LDLR mRNA: 1.1±0.1 fold
  NOR1 mRNA: 1.2±0.2 fold
  Nur77 mRNA: 0.8±0.2 fold
  SCD1 mRNA: 0.8±0.1 fold
  SREBP1 mRNA: 0.9±0.3 fold
  SULT2B1b mRNA: 1.0±0.2 fold
SKMEL-28 cells [5]
  LC3-II protein, densitometry relative to control: 1

## CC(C)CCC[C@@H](C)[C@H]1CC[C@H]2[C@@H]3C[C@@H](NCCc4cnc[nH]4)[C@@]4(O)C[C@@H](O)CC[C@]4(C)[C@H]3CC[C@]12C [DDA, Dendrogenin A]
B16F10 cells [1]; B16F10, siCT
  ABCA1 mRNA: 0.4±0.1 fold
  ABCG1 mRNA: 1.4±0.1 fold
  ABCG5 mRNA: 3.5±0.1 fold
  ABCG8 mRNA: 1.6±0.2 fold
  LC3A mRNA: 2.4±0.2 fold
  LC3B mRNA: 1.7±0.1 fold
  LDLR mRNA: 4.2±0.2 fold
  NOR1 mRNA: 4.6±0.1 fold
  Nur77 mRNA: 6.8±0.2 fold
  SCD1 mRNA: 1.6±0.2 fold
  SREBP1 mRNA: 0.9±0.1 fold
  SULT2b1b mRNA: 1.6±0.1 fold
B16F10 cells [1]; B16F10, siLXRβ
  ABCA1 mRNA: 1.2±0.1 fold
  ABCG1 mRNA: 0.9±0.1 fold
  ABCG5 mRNA: 1.0±0.1 fold
  ABCG8 mRNA: 1.2±0.1 fold
  LC3A mRNA: 0.9±0.2 fold
  LC3B mRNA: 1.0±0.2 fold
  LDLR mRNA: 1.0±0.1 fold
  NOR1 mRNA: 0.3±0.2 fold
  Nur77 mRNA: 0.4±0.1 fold
  SCD1 mRNA: 0.9±0.2 fold
  SREBP1 mRNA: 0.9±0.2 fold
  SULT2b1b mRNA: 0.8±0.1 fold
SKMEL-28 cells [2]; Homo sapiens, SK-MEL-28, SKMEL-28 (H), BRaf V600E, 72 h, read-out: Cytotox EC50
  EC50: 2100 ± 200 nM
B16F10 cells [3]; Mus musculus, B16-F10, 72 h, read-out: Cytotox EC50
  EC50: 700 ± 100 nM
SKMEL-28 cells [4]; SKMEL-28, siCT
  ABCA1 mRNA: 0.4±0.1 fold
  ABCG1 mRNA: 1.0±0.1 fold
  ABCG5 mRNA: 3.9±0.4 fold
  ABCG8 mRNA: 0.2±0.1 fold
  LC3A mRNA: 1.7±0.2 fold
  LC3B mRNA: 1.6±0.1 fold
  LDLR mRNA: 3.2±0.3 fold
  NOR1 mRNA: 4.8±0.2 fold
  Nur77 mRNA: 8.2±0.2 fold
  SCD1 mRNA: 2.2±0.2 fold
  SREBP1 mRNA: 0.9±0.2 fold
  SULT2B1b mRNA: 2.9±0.1 fold
SKMEL-28 cells [4]; SKMEL-28, siLXRβ
  ABCA1 mRNA: 0.9±0.1 fold
  ABCG1 mRNA: 0.8±0.2 fold
  ABCG5 mRNA: 1.1±0.2 fold
  ABCG8 mRNA: 0.7±0.2 fold
  LC3A mRNA: 0.8±0.2 fold
  LC3B mRNA: 0.9±0.3 fold
  LDLR mRNA: 1.8±0.2 fold
  NOR1 mRNA: 1.0±0.1 fold
  Nur77 mRNA: 1.2±0.2 fold
  SCD1 mRNA: 1.2±0.1 fold
  SREBP1 mRNA: 1.0±0.3 fold
  SULT2B1b mRNA: 1.1±0.2 fold
SKMEL-28 cells [5]
  LC3-II protein, densitometry relative to control: 2.5
SKMEL-28 cells [5]; SKMEL-28 sh3LXRβ
  LC3-II protein, densitometry relative to untreated: 2.1
SKMEL-28 cells [5]; SKMEL-28 sh4LXRβ
  LC3-II protein, densitometry relative to untreated: 2.6
SKMEL-28 cells [5]; SKMEL-28 shCTRL
  LC3-II protein, densitometry relative to untreated: 5.5
SKMEL-28 cells [5]; SKMEL-28 siATG7
  LC3-II protein, densitometry: 1.1
SKMEL-28 cells [5]; SKMEL-28 siBECN1
  LC3-II protein, densitometry: 1.3
SKMEL-28 cells [5]; SKMEL-28 siNOR1 + siNur77
  LC3-II protein, densitometry: 3.2
SKMEL-28 cells [5]; SKMEL-28 siNOR1
  LC3-II protein, densitometry: 2.2
SKMEL-28 cells [5]; SKMEL-28 siNur77
  LC3-II protein, densitometry: 1.8
SKMEL-28 cells [5]; SKMEL-28 siVPS34
  LC3-II protein, densitometry: 1.2

## O=C(O)Cc1cccc(OCCCN(Cc2cccc(C(F)(F)F)c2Cl)CC(c2ccccc2)c2ccccc2)c1 [GW, GW3965]
B16F10 cells [1]; B16F10, siCT
  ABCA1 mRNA: 14.3±1.6 fold
  ABCG1 mRNA: 2.1±0.4 fold
  ABCG5 mRNA: 1.9±0.5 fold
  ABCG8 mRNA: 1.7±0.2 fold
  LC3A mRNA: 1.1±0.1 fold
  LC3B mRNA: 1.1±0.1 fold
  LDLR mRNA: 2.0±0.1 fold
  NOR1 mRNA: 1.6±0.2 fold
  Nur77 mRNA: 1.0±0.3 fold
  SCD1 mRNA: 1.9±0.2 fold
  SREBP1 mRNA: 3.1±0.2 fold
  SULT2b1b mRNA: 1.2±0.1 fold
B16F10 cells [1]; B16F10, siLXRβ
  ABCA1 mRNA: 2.6±0.1 fold
  ABCG1 mRNA: 1.1±0.2 fold
  ABCG5 mRNA: 0.9±0.1 fold
  ABCG8 mRNA: 0.9±0.1 fold
  LC3A mRNA: 1.1±0.2 fold
  LC3B mRNA: 1.1±0.3 fold
  LDLR mRNA: 1.0±0.2 fold
  NOR1 mRNA: 1.0±0.1 fold
  Nur77 mRNA: 0.9±0.2 fold
  SCD1 mRNA: 1.1±0.1 fold
  SREBP1 mRNA: 1.1±0.2 fold
  SULT2b1b mRNA: 1.0±0.1 fold
SKMEL-28 cells [2]
  cell death: no impact on cell death
B16F10 cells [3]
  cell death: no impact on cell death
SKMEL-28 cells [4]; SKMEL-28, siCT
  ABCA1 mRNA: 15.1±2 fold
  ABCG1 mRNA: 3.2±0.5 fold
  ABCG5 mRNA: 3.1±0.5 fold
  ABCG8 mRNA: 1.5±0.1 fold
  LC3A mRNA: 0.8±0.2 fold
  LC3B mRNA: 0.9±0.1 fold
  LDLR mRNA: 1.0±0.2 fold
  NOR1 mRNA: 1.5±0.1 fold
  Nur77 mRNA: 0.7±0.2 fold
  SCD1 mRNA: 1.6±0.1 fold
  SREBP1 mRNA: 2.6±0.3 fold
  SULT2B1b mRNA: 2.8±0.1 fold
SKMEL-28 cells [4]; SKMEL-28, siLXRβ
  ABCA1 mRNA: 2.2±0.3 fold
  ABCG1 mRNA: 1.2±0.1 fold
  ABCG5 mRNA: 1.1±0.1 fold
  ABCG8 mRNA: 0.8±0.1 fold
  LC3A mRNA: 1.0±0.3 fold
  LC3B mRNA: 1.1±0.3 fold
  LDLR mRNA: 0.9±0.1 fold
  NOR1 mRNA: 0.8±0.1 fold
  Nur77 mRNA: 0.9±0.2 fold
  SCD1 mRNA: 1.1±0.1 fold
  SREBP1 mRNA: 1.5±0.2 fold
  SULT2B1b mRNA: 1.1±0.2 fold
